In patent US9486461B2, “Methods and compositions for inducing apoptosis by stimulating ER stress” (UNIVERSITY OF SOUTHERN CALIFORNIA, priority 2007, dated 2016):
Entries after “also recorded” stand apart in the source; their conditions may differ.

Assays:
[1] = tested on: CHOP, GRP78, caspase 4 in U251 glioblastoma cells; assay: Western blot of ER stress indicators in U251 cells; assay type: cell-based, human; conditions: for CHOP expression, time kinetics: U251, 50 μmol/L, 4 h up to 24 h; for increase in CHOP or GRP78 protein, concentration dependence: U251, 15 hours, concentrations up to 75 or 100 μmol/L
Procedure: U251 glioblastoma cells were cultured in the presence of 1 μM thapsigargin (Tg) or 60 μM DMC for various times, as indicated. Total cell lysates were prepared and analyzed by Western blot with specific antibodies to the ER stress proteins GRP78, CHOP, and caspase 4 (Casp 4). Actin was used as a loading control.
Shown are (A) time kinetics at 50 μM of each drug, and (B) concentration dependence after 15 hours of incubation.
Shown are (FIG. 7A) time kinetics at 50 μM of each drug, and (FIG. 7B), concentration dependence after 15 hours of incubation.
U251 glioblastoma cells were cultured for 24 hours in the presence of increasing concentrations of (A) bortezomib (BZM) or (B) DMC. Total cell lysates were analyzed by Western blot with specific antibodies to ubiquitin, GRP78, CHOP, and caspase 4. Actin was used as a loading control.
Total cell lysates were prepared by lysis of cells with radioimmunoprecipitation assay buffer (28), and protein concentrations were determined using the bicinchoninic acid protein assay reagent (Pierce, Rockford, Ill.). For Western blot analysis, 50 Ag of each sample were processed as described (29). The primary antibodies were purchased from Cell Signaling Technologies (Beverly, Mass.), Cayman Chemical (Ann Arbor, Mich.), or Santa Cruz Biotechnology, Inc. (Santa Cruz, Calif.) and used according to the manufacturer's recommendations. The secondary antibodies were coupled to horseradish peroxidase and detected by chemiluminescence using the SuperSignal West substrate from Pierce. All immunoblots were repeated at least once to confirm the results.
Total cell lysates were prepared and analyzed by Western blot analysis as described earlier (19). Immunohistochemical analysis of protein expression in tumor tissues was performed with the use of the Vectastain avidin-biotin complex method kit (Vector Laboratories) as described previously (32). The primary antibodies were purchased from Cell Signaling Technology or Santa Cruz Biotechnology, Inc. and used according to the manufacturers' recommendations. All immunoblots and stainings were repeated at least once to confirm the results.

[2] = tested on: cytoplasmic calcium levels in U251 cells; assay: Cytoplasmic calcium imaging (Fura-2/AM); assay type: cell-based, human; conditions: 100 μmol/L of each drug, Fura-2/AM loaded cells
Procedure: (A) U251 cells were treated with DMC or various coxibs and NSAIDs, and changes in intracellular calcium levels were recorded as described in Materials & Methods. […] Arrows indicate timepoint of drug addition. […] Essentially similar results were also obtained with the LN229 cell line.
The cells were loaded by incubating them with […] Fura-2/AM (Invitrogen) for 30 min at room temperature in external solution containing 138 mmol/L NaCl, 5.6 mmol/L KCl, 1.2 mmol/L MgCl2, 2.6 mmol/L CaCl2, 10 mmol/L HEPES, and 4 mmol/L glucose (pH 7.4). After loading, the cells were rinsed and transferred to the imaging setup. The cells were treated with individual drugs for 10 s, whereas fluorescence was elicited with the excitation wavelength alternating between 350 and 380 nm, using a Polychromator V (TILL Photonics GmbH, Grafelfing, Germany) to provide illumination via a Zeiss Axiovert 100 microscope with a Zeiss Fluar 40 oil objective (Carl Zeiss, Jena, Germany). Images were captured using a Cascade 512B CCD camera (Photometrics, Tucson, Ariz.) controlled with MetaFluor software (Molecular Devices, Sunnyvale, Calif.) at 0.5 Hz acquisition frequency. Ratios of the images obtained at 350 and 380 nm excitation were used to show changes in the cytoplasmic calcium concentration, according to the principles developed by Grynkiewicz et al. (31).

U251 glioblastoma cells [3] = assay: MTT assay, U251; assay type: cell-based, human; conditions: U251, 48 hours, concentrations of up to 100 μmol/L
Procedure: U251 glioblastoma cells were treated with different drugs, and various parameters of cell growth and cell death were comparatively analyzed. As controls, cells remained either non-treated (Co) or were treated with the solvent DMSO alone. (FIG. 8A) Cells were treated with 30 or 50 μM DMC for 48 hours and the effects on cell growth/survival and on cell death were determined by various assays. […] Below the three panels, the expression levels of the ER stress indicators CHOP, GRP78, and caspase 4 at the end of the 48 hour drug treatment is shown, as determined by Western blot analysis with specific antibodies (actin served as a loading control. (FIG. 8B) Cells were treated with various concentrations of different drugs for 48 hours, as indicated, and cell death was measured with the cell death ELISA kit. (FIG. 8C) Cells were treated with DMC or various coxibs and traditional NSAIDs for 48 hours, as indicated, and cell growth and survival was determined with the conventional MTT assay (control, non-treated cells were set at 100%). MTT assays were performed in 96-well plates with the use of 3.0-8.0×10^3 cells per well as described in detail elsewhere (34). In parallel, the expression levels of CHOP and GRP78 protein were determined by Western blot analysis. […]
3-(4,5-Dimethylthiazol-2-yl)-2,5-diphenyltetrazolium bromide (MTT) assays were performed in 96-well plates with the use of 3.0×10^3 to 8.0×10^3 cells per well as described in detail elsewhere (19).

U251 glioblastoma cells [4] = assay: Cell death ELISA, U251; assay type: cell-based, human; conditions: U251, 48 hours, concentrations of up to 100 μmol/L
Procedure: U251 glioblastoma cells were treated with different drugs, and various parameters of cell growth and cell death were comparatively analyzed. As controls, cells remained either non-treated (Co) or were treated with the solvent DMSO alone. (FIG. 8A) Cells were treated with 30 or 50 μM DMC for 48 hours and the effects on cell growth/survival and on cell death were determined by various assays. […] Below the three panels, the expression levels of the ER stress indicators CHOP, GRP78, and caspase 4 at the end of the 48 hour drug treatment is shown, as determined by Western blot analysis with specific antibodies (actin served as a loading control. (FIG. 8B) Cells were treated with various concentrations of different drugs for 48 hours, as indicated, and cell death was measured with the cell death ELISA kit. (FIG. 8C) Cells were treated with DMC or various coxibs and traditional NSAIDs for 48 hours, as indicated, and cell growth and survival was determined with the conventional MTT assay (control, non-treated cells were set at 100%). MTT assays were performed in 96-well plates with the use of 3.0-8.0×10^3 cells per well as described in detail elsewhere (34). In parallel, the expression levels of CHOP and GRP78 protein were determined by Western blot analysis.
Apoptosis in cell cultures in vitro was determined by using the Cell Death Detection ELISA kit (Roche Diagnostics, Indianapolis, Ind.) according to the manufacturer's instructions. This immunoassay specifically detects the histone region (H1, H2A, H2B, H3, and H4) of mononucleosomes and oligonucleosomes that are released during apoptosis. Ninety-six-well plates were seeded with 1,000 cells per well and read at 405 nm in a Microplate Autoreader (Model EL 311 SX; Bio-Tek Instruments, Inc., Winooski, Vt.).

human glioblastoma cells = assay: Induction of apoptosis in human glioblastoma cells (FIG. 19); assay type: cell-based
Source text: In the figure, DMC stands for 4-[5-(2,5-dimethylphenyl)-3-(trifluoromethyl)-1H-pyrazol-1-yl]benzenesulfonamide; DBrC stands for 4-[5-(2,5-dibromophenyl)-3-(trifluoromethyl)-1H-pyrazol-1-yl]benzenesulfonamide; and DTF3C stands for 4-[5-(2,5-ditrifluoromethylphenyl)-3-(trifluoromethyl)-1H-pyrazol-1-yl]benzenesulfonamide.

[5] = tested on: Tumor-associated Brain Endothelial Cells (TuBEC); assay: Trypan blue exclusion, tumor-associated brain endothelial cells; assay type: cell-based
Procedure: After drug treatment the cells were incubated for another 12 days in the absence of drug, in order to determine their long-term survival; at that time cytotoxicity was evaluated using the trypan blue exclusion technique. Results are presented as number of viable cells per group.
Tumor-associated Brain Endothelial Cells (TuBEC) were treated with TMZ (300 uM) and 20 uM DMC for 48 hours. The drugs were removed and cells were incubated for another 12 days; at that time cytotoxicity was evaluated using the trypan blue exclusion technique. Results are presented as number of viable cells per group.

[6] = tested on: CHOP protein in U87 glioblastoma tumor tissue; assay: Immunohistochemical staining for CHOP in xenograft tumor tissue; assay type: in vivo, nude mice; conditions: U87 xenograft
Source text: In all cases, representative sections are shown.
Immunohistochemical analysis of protein expression in tumor tissues was done with the use of the Vectastain avidin-biotin complex method kit (Vector Laboratories, Burlingame, Calif.) according to the manufacturer's instructions. This procedure uses biotinylated secondary antibodies and a preformed avidin: biotinylated enzyme complex that has been termed the avidin-biotin complex method technique. As the primary antibody, we used anti-CHOP antibody (Santa Cruz Biotechnology) diluted 1:100 in 2% normal goat blocking serum.

U87 glioblastoma tumors [7] = assay: Tumor growth in xenograft nude mouse model; assay type: in vivo, nude mice; conditions: daily chow for DMC, 40 mg/kg for rofecoxib, n=5
Procedure: Once palpable tumors had formed, the animals received daily chow supplemented with DMC, rofecoxib, or no drug. Tumor size was determined every three days. Shown is the average (mean±SD) tumor volume in each group (n=5). Asterisks (**): p<0.01 between control and DMC-treated animals on day 42.

U87 glioblastoma tumors [8] = assay: TUNEL assay of xenograft tumor tissue; conditions: U87 xenograft, short-term drug treatment

Compound	elevation of cytoplasmic calcium levels [2]	detectable effect on cell growth and survival (MTT) (U251 glioblastoma cells [3])	induction of cell death/apoptosis (cell death ELISA) (U251 glioblastoma cells [4])	further results
Cc1onc(-c2ccccc2)c1-c1ccc(S(N)(=O)=O)cc1 [valdecoxib, 4-[5-Methyl-3-phenylisoxazol-4-yl]-benzenesulfonamide]	none	none	did not induce apoptosis	CHOP expression, time kinetics [1]: neither rofecoxib nor valdecoxib at the same concentration resulted in any detectable CHOP expression; increase in CHOP or GRP78 protein, concentration dependence [1]: neither rofecoxib nor valdecoxib was able to stimulate any detectable increase
CC(C(=O)O)c1ccc(-c2ccccc2)c(F)c1 (stereo not shown) [flurbiprofen]	none	none	did not induce apoptosis	
COc1ccc2c(c1)c(CC(=O)O)c(C)n2C(=O)c1ccc(Cl)cc1 [indomethacin]	none	none	did not induce apoptosis	
NS(=O)(=O)c1ccc(-n2nc(C(F)(F)F)cc2-c2cc(Br)ccc2Br)cc1 [DBrC, 4-[5-(2,5-dibromophenyl)-3-(trifluoromethyl)-1H-pyrazol-1-yl]benzenesulfonamide]				relative ability to induce apoptosis / cell killing effect compared to DMC (human glioblastoma cells): surprisingly potent cell killing effect
CC1=C(CC(=O)O)c2cc(F)ccc2/C1=C\c1ccc([S+](C)[O-])cc1 (stereo not shown) [sulindac]	none	none	did not induce apoptosis	
C/C=C(/C)C(=O)O[C@H]1C(C)=C2[C@H]([C@@H]1OC(=O)CCCCCCC)[C@@](C)(OC(C)=O)C[C@H](OC(=O)CCC)[C@@]1(O)[C@H]2OC(=O)[C@@]1(C)O [thapsigargin]				time at which activation (cleavage) of caspase-4 was first noted ([1]; U251, 1 μM thapsigargin or 60 μM DMC): ~24 h; CHOP and GRP78 expression levels ([1]; U251, 1 μM thapsigargin or 60 μM DMC, prominent increase at 6 h and thereafter): substantially elevated
Cn1nnc2c(C(N)=O)ncn2c1=O [Temozolomide]				cytotoxicity on tumor-associated brain endothelial cells [5]: little cytotoxicity
NS(=O)(=O)c1ccc(-n2nc(C(F)(F)F)cc2-c2cc(C(F)(F)F)ccc2C(F)(F)F)cc1 [DTF3C, 4-[5-(2,5-ditrifluoromethylphenyl)-3-(trifluoromethyl)-1H-pyrazol-1-yl]benzenesulfonamide]				relative ability to induce apoptosis / cell killing effect compared to DMC (human glioblastoma cells): surprisingly potent cell killing effect; also recorded: most potent compound
CS(=O)(=O)c1ccc(C2=C(c3ccccc3)C(=O)OC2)cc1 [rofecoxib, 4-(4′-methylsulfonylphenyl)-3-phenyl-2-(5H)-furanone]	none	none	did not induce apoptosis	CHOP expression, time kinetics [1]: neither rofecoxib nor valdecoxib at the same concentration resulted in any detectable CHOP expression; increase in CHOP or GRP78 protein, concentration dependence [1]: neither rofecoxib nor valdecoxib was able to stimulate any detectable increase; CHOP staining of tumor tissues ([6]; 30-180 mg/kg per day for 50 h, DMC and celecoxib already at lowest dosages): consistently negative; CHOP protein expression in tumor tissue ([6]; animals fed drug for 50 h): no such increase was observed; tumor growth on longer-term therapy (U87 glioblastoma tumors [7]): not; apoptosis in the tumor tissue (U87 glioblastoma tumors [8]): did not display elevated levels of apoptosis
